From ChEMBL document CHEMBL1142243, “Potent and selective alpha-ketoheterocycle-based inhibitors of the anandamide and oleamide catabolizing enzyme, fatty acid amide hydrolase” (J Med Chem, 2007) come the findings set out here.

Experiment [1] concerns the target Fatty-acid amide hydrolase 1 (Rattus norvegicus) (UniProt P97612). Put plainly: Inhibition of rat recombinant FAAH expressed in Escherichia coli by [14C]oleamide breakdown.
The species named for experiment [2] is Homo sapiens. Briefly: Selectivity for FAAH over KIAA1363.
For experiment [3], the species on record is Homo sapiens. Put plainly: Selectivity for FAAH over TGH.
Experiment [4] deals with T1, Fatty-acid amide hydrolase 1 (Homo sapiens, UniProt O00519).
T1 sequence (O00519 whole entry): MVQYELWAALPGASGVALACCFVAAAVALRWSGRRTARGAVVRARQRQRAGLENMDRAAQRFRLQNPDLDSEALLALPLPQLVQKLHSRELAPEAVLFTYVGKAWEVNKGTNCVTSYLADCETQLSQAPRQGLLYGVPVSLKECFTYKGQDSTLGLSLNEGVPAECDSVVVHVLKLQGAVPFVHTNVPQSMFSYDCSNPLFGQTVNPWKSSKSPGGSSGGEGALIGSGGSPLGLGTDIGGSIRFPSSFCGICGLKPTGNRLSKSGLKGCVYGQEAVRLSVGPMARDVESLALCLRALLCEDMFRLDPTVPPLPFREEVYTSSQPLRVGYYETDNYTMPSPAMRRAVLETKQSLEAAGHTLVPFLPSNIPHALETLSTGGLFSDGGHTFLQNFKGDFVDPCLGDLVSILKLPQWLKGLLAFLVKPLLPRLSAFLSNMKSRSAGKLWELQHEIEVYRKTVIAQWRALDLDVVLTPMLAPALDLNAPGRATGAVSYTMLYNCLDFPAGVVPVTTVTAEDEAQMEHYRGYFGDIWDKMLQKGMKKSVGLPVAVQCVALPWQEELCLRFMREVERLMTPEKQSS
Briefly: Inhibition of human FAAH expressed in COS7 cells by [14C]oleamide breakdown. It is filed as cell-based, COS-7.

Experiment [5] deals with T2, Neutral cholesterol ester hydrolase 1 (Homo sapiens, UniProt Q6PIU2).
T2 sequence (Q6PIU2 whole entry): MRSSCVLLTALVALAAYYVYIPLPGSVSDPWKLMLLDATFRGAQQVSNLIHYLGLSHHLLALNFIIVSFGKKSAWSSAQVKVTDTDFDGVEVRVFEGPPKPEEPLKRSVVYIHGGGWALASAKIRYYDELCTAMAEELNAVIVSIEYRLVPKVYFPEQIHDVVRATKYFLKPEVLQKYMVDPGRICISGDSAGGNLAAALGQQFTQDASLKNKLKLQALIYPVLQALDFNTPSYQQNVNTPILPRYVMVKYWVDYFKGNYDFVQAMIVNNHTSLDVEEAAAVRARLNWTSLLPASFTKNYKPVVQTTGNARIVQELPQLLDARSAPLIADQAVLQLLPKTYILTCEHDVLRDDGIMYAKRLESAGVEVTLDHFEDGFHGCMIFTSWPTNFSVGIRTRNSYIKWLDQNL
Put plainly: Inhibition of KIAA1363.

The next experiment deals with T3, Liver carboxylesterase 1 (Homo sapiens, UniProt P23141).
T3 sequence (P23141 whole entry): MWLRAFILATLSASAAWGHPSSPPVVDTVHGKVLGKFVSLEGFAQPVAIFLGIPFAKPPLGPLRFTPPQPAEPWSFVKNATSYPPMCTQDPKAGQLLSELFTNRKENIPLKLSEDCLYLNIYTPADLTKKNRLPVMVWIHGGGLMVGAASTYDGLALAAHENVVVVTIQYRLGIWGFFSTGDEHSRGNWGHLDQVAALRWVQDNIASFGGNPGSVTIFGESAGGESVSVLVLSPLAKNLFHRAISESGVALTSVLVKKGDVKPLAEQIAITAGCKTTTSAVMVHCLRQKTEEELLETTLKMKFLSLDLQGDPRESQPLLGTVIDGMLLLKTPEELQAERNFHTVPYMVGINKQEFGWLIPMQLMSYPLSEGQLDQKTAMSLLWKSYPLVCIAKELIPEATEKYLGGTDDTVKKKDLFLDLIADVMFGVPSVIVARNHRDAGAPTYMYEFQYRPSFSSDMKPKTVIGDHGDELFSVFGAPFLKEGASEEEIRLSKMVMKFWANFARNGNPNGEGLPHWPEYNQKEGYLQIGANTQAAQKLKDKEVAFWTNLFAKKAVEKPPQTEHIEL
Briefly: Inhibition of TGH.

Sequence of Fatty-acid amide hydrolase 1 (Rattus norvegicus) (P97612 whole entry, looked up): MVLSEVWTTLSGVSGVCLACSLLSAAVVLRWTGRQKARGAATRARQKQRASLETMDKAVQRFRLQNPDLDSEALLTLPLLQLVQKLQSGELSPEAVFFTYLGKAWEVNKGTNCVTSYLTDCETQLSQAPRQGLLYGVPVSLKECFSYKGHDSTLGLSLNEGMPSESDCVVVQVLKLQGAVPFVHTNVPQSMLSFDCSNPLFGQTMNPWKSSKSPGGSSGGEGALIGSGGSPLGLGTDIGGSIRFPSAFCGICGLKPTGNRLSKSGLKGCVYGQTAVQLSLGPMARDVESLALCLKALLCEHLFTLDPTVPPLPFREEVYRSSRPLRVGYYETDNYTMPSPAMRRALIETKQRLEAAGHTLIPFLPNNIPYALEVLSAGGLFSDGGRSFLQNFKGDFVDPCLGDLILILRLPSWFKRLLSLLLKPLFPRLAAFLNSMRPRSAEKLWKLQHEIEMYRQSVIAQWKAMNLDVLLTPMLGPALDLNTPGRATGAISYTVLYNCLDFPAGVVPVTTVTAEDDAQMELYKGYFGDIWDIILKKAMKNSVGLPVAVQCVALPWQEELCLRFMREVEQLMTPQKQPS

As a reminder, the IC50 is the concentration that inhibits the measured activity by half. One may read the Ki as a measure of affinity in units of concentration, obtained from inhibition or displacement. With `O=C(O)c1ccc(-c2cnc(C(=O)CCCCCCc3ccccc3)o2)nc1`, the half-maximal inhibitory concentration (IC50) is 50 nM in experiment [1], > 100000 nM in experiment [5] and 3000 nM against Liver carboxylesterase 1. Further, the Ki in experiment [1] turned out to be 7 nM; in experiment [4], 8 nM. Besides, the Ratio IC50 is > 2000 in the experiment listed under Homo sapiens [2] and 60 in the experiment listed under Homo sapiens [3].

Take `COC(=O)c1ccnc(-c2cnc(C(=O)CCCCCCc3ccccc3)o2)c1`: the figures for the IC50 (in experiment [1]; in experiment [5]; at Liver carboxylesterase 1) were 0.6 nM, > 100000 nM and 900 nM, respectively. Also, the Ki in experiment [1] worked out at 1.3 nM. The Ratio IC50 is > 170000 in the experiment listed under Homo sapiens [2] and 2000 in the experiment listed under Homo sapiens [3].

As for `O=C(CCCCCCc1ccccc1)c1ncc(-c2cc([N+](=O)[O-])ccn2)o1`, the figures for the IC50 (in experiment [1]; in experiment [5]; against Liver carboxylesterase 1) were 1.6 nM, > 100000 nM and 200 nM, respectively. The Ki in experiment [1] worked out at 3.2 nM. Moreover, the Ratio IC50 in the experiment listed under Homo sapiens [2] was > 63000; in the experiment listed under Homo sapiens [3] it was 125.

`O=C(CCCCCCc1ccccc1)c1ncc(-c2cc(=O)[nH]c(=O)[nH]2)o1`: the figures for the IC50 (in experiment [1]; in experiment [5]; against Liver carboxylesterase 1) were 5 nM, > 100000 nM and 30000 nM, respectively. In addition, the Ki in experiment [1] turned out to be 12 nM. For the same compound, the Ratio IC50 is > 20000 in the experiment filed under Homo sapiens [2] and 6200 in the experiment filed under Homo sapiens [3].
